Measurements: patent US20040034201A1, “Enhanced affinity hyaluronan binding peptides” (priority 1997, published 2004)
Read-outs that look alike come from different tables or passages of the source.

How the values were obtained:
[1] = test system: Ras-transformed 10T1/2 fibroblasts; experiment: Apoptosis (Hoechst dye positive nuclei); assay type: cell-based; conditions: 100 ug/mL peptide or PD98059 50 ug/mL; 48 h
Procedure: Ras-transformed 10T1/2 fibroblasts were grown to sub-confluence and were incubated with enhanced affinity hyaluronan binding peptide (shown in SEQ.ID.NO.:3) at a concentration of 100 ug/mL for 48 h. The cells were then stained with Hoechst dye using standard procedures and the percentage of apoptotic cells were determined by detection of positive stain in the nucleus of randomly selected cells.

10T1/2 fibroblasts = experiment: Cell proliferation in response to serum (hemocytometer counts); assay type: cell-based; conditions: 100 ug/mL peptide or PD98059 50 ug/mL, 48 h
Procedure: 10T1/2 fibroblasts were grown to semi-confluence and were incubated with enhanced affinity hyaluronan binding peptide (shown in SEQ.ID.NO.:3) at a concentration of 100 ug/mL for 48 h. The cells were then trypsinized in 0.12% trypsin and counted using a hematocytometer. Released cells were stained with trypan blue and only viable cells were counted.

[2] = HA binding of biotinylated peptides on HA-derivatized ELISA plates
Procedure: A 15-mer phage display library was obtained from Chiron Inc. (CA). Hyaluronan (HA) was biotinylated and mixed with streptavidin-sepharose (Sigma) and washed. The Biotinylated HA was incubated with the phage library, then recovered with streptavidin-sepharose. The phage biotinylated HA-streptavidin -sepharose mixture was washed 4 times with phosphate buffered saline (PBS) and recovered phage were plated on a bacteria lawn in petri dishes. Clones were isolated and assessed for their ability to bind to HA. For the first screen, a total 75 clones were obtained after 4 cycles of screening. To assess the specificity of binding of these clones to HA, two approaches were taken. In the first, the ability of the clones to bind to biotin-sepharose or to streptavidin-sepharose were assessed. Clones were recovered from the bacteria lawn and mixed with biotin-sepharose and streptavidin-sepharose. Sepharose beads were washed 4 times with PBS and plated onto a bacteria lawn. In the second assay, clones were mixed with excess (100 ug/mL) HA (mean molecular weight: 700,000 daltons (Hyal, Ontario, Canada) together with biotinylated HA. After mixing the biotinylated HA was recovered with streptavidin-sepharose, washed as above and plated onto a bacteria lawn. Clones were sequenced in an automatic sequencer. A schematic diagram illustrating the isolation of enhanced affinity hyaluronan binding peptides from the 15-mer phage display library is shown in FIG. 1.
Enhanced affinity HA binding peptides mimicking sequences obtained from the phage display library and scrambled peptides prepared from these sequences were tested for their HA binding properties. HA was derivatized to NUNC ELISA plates and biotinylated peptides were added to the plates and incubated for 2 h at room temperature. Plates were washed 4 times with PBS and then incubated with streptavidin-peroxidase for 1 h, washed, developed with hydrogen peroxide and their optical densities were determined. Controls were conducted using BSA-coated ELISA wells.

[3] = peptide of WO 93/21312 with carboxy-terminal histidine; cited from earlier work
punch biopsy wound = experiment: Rat punch biopsy model of skin repair; assay type: in vivo
Procedure: Three-month-old female Fischer rats were anesthesized and subjected to […] full thickness punch biopsies. Wounds were filled with a sterile solution of 1% collagen type 1 gel containing either PBS alone, HA binding peptide (shown in SEQ.ID.NO.:3) (20 mg/mL) or scrambled peptide (20 mg/mL) that contained the same amino acids as the HA binding peptide but in a random order. 100 uL of the collagen solution was applied to the punch biopsy wound and allowed to gel over 20 min. The wounds were then covered with a protective plastic shield that was sewn into the skin. Wounds were recovered from euthenized rats with a 9 mm punch biopsy.
Recovered punch biopsies were extracted with RIPA buffer and total protein was determined with a Biorad protein assay. Protein (50 ug) was loaded onto each lane and proteins were separated by electrophoresis on SDS-PAGE. Separated proteins were transferred to a nitrocellulose blot and the blot was processed for reactivity to anti-RHAMM antisera or anti-CD44 antibody (Dillon, P. W. et al., J. Surg. Res. 57: 170-173, 1994).
Messenger RNA was isolated by Micro-FastTrack Kit (Invitrogen, San Diego, Calif.). The quality of RNA samples was confirmed by denaturing gel electrophoresis. Reverse transcription was performed by using First Strand cDNA Synthesis kit (Clontech, Polo Alco, Calif.). Briefly, 0.2 ug of mRNA was used to generate cDNA using oligo(dT) 18 primer. Samples containing 0.2 ug of mRNA per time point was heat-denatured in DEPC-treated water for 2 min at 70° C. and incubated at 42° C. for 1 h in a total volume of 20 uL of 20 pmol primers, 0.5 mM of each dNTP, 1 unit/uL of RNase inhibitor and 200 units/ug RNA of MMLV. The reaction was stopped by heating at 94° C. for 5 min and to destroy any DNase activity. The reaction mixture was diluted to a final volume of 100 uL and aliquots were stored at −80° C. until further use.
To distinguish between amplication of genomic DNA and complementary DNA, the primer pairs were designed to enclose at least one intron on the genomic sequences of RHAMM and beta-actin. […]

Human neutrophils = experiment: Chemotaxis in Boyden chamber, human neutrophils to IL-8; assay type: cell-based; conditions: MTT blue, n = 3 replicates, the values are: MTT absorbance (chemotaxis)
Procedure: (§1) Ras-transformed 10T1/2 or parental 10T1/2 fibroblasts (Egan, S. E. et al., Science 238: 202-205, 1987; Hardwick, C. et al., J. Biol. Chem. 117: 1343-1350, 1992) were cultured in DMEM containing 10% fetal bovine serum (FBS) and maintained in 5% CO2 humidified atmospheric condition. Every second passage, cells were maintained in 600 ug/mL G418 for one passage to select for maintenance of the mutant active ras-geneticin construct in cells. Cells were passaged at confluence and utilized under 20 passages. Macrophages were obtained from lung lavage 1 h after bleomycin insertion (Gelzleichter, T. R. et al., Fund. Appl. Toxicol. 30: 39-46, 1996) and used immediately in assays. Neutrophils were obtained from human blood as described and used immediately.
(§2) To assess the effects of enhanced affinity hyaluronan binding peptides and scrambled peptides on chemotaxis, a modified multi-well boyden chamber was utilized as described by Shi, Y. et al. (J. Immunol. Methods 164: 149-154, 1993).

[4] = test system: Fibroblast (ras transformed); experiment: Random locomotion by image analysis, ras-transformed 10T1/2 fibroblasts on fibronectin; assay type: cell-based
Procedure: as §1
(§3) For routine analysis of random locomotion, 10T1/2 fibroblasts or leukocytes were subcultured into culture flasks coated with 20 ug/mL fibronectin and maintained in DMEM plus 10% FBS for 24-48 h. The enhanced affinity hyaluronan binding peptide (shown in SEQ.ID.NO.:3) or scrambled peptides were incubated with the cultures at concentrations of 50 ng to 1 ug per mL. […] Filming was conducted for up to 24 h with images recorded every 20 min.

Rat alveolar macrophages = experiment: Chemotaxis in Boyden chamber, rat alveolar macrophages to C5a; assay type: cell-based; conditions: MTT blue, n = 3 replicates, the values are: MTT absorbance (chemotaxis)
Procedure: as §1, §2

S1 macrophage cell line = experiment: Chemotaxis in Boyden chamber, S1 macrophage cell line to C5a; assay type: cell-based; conditions: MTT blue, n = 3 replicates, the values are: MTT absorbance (chemotaxis)
Text: as §2

Alveolar macrophages = experiment: Random locomotion by image analysis, alveolar macrophages; assay type: cell-based; conditions: nuclear displacement by image analysis, n = 100 cells
Procedure: as §1, §3

**Q.** Which results are given for COc1cccc(-c2cc(=O)c3ccccc3o2)c1N [PD98059, reference compound]?
**A.** % Hoechst Positive Nuclei [1]: 40 ± 2.5%; Number of Cells (×10^6) (10T1/2 fibroblasts): 0.5 ± 0.1 ×10^6

**Q.** Which “ability to bind HA” value [2] does the source give for STMMSRSHKTRSCHH here?
**A.** Its value is “can bind to HA”.

**Q.** For TMTRPHFHKRQLVLS, which “ability to bind HA” value [2] is on record?
**A.** The value was “Enhanced affinity binding”.

**Q.** With KLRSQLVHHH as the compound, how does the “ability to bind HA” value [3] read?
**A.** Its value is “unable to bind to HA”.

**Q.** With “STMMSRSHKTRSHHV [peptide of the Formula III with a valine residue at the C-terminal]” as the compound, how does the “ability to bind HA” value [2] read?
**A.** Its value is “Enhanced affinity binding”.

**Q.** For STMMSRSHKTRSHH, which “HA accumulation within the remodelling dermal layer” value (punch biopsy wound; at 24 h, biotinylated aggrecan staining) is on record?
**A.** The value was “increase in HA accumulation”.

**Q.** And the “keratinocyte resurfacing of the wound (re-epithelialization)” value (punch biopsy wound; rat, applied in collagen gel to the wound, 24 h after injury)?
**A.** Its value is “inhibited keratinocyte resurfacing of the wound”.

**Q.** What about the “number of fibroblasts at the wound site” value (punch biopsy wound; rat, peptide 20 mg/mL in collagen gel) of the same compound?
**A.** Its value is “reduced the number of fibroblasts”.

**Q.** And the Rate of Locomotion, chemotaxis (Human neutrophils)?
**A.** Its Rate of Locomotion, chemotaxis is 0.088 ± 0.009.

**Q.** And the “% Hoechst Positive Nuclei” value [1]?
**A.** The value was 4.9 ± 0.9%.

**Q.** What about the “ability to bind HA” value [2] of the same compound?
**A.** Its value is “can bind to HA”.

**Q.** What about the “Number of Cells (×10^6)” value (10T1/2 fibroblasts) of the same compound?
**A.** Its value is 2.4 ± 0.2 ×10^6.

**Q.** And the “Concentrations optimal for inhibiting cell motility” value ([4]; 10T1/2 fibroblasts or leukocytes, tested 50 ng to 1 ug per mL)?
**A.** Its value is 50 to 100 ng/mL.

**Q.** What about the “Rate of Locomotion, random locomotion” value ([4]; Fibroblast (ras transformed), nuclear displacement by image analysis, n = 100 cells) of the same compound?
**A.** The value was 10.83 ± 1.07 um/h.

**Q.** What about the Rate of Locomotion, chemotaxis (Rat alveolar macrophages) of the same compound?
**A.** Its Rate of Locomotion, chemotaxis is 0.425 ± 0.028.

**Q.** What about the Rate of Locomotion, chemotaxis (S1 macrophage cell line) of the same compound?
**A.** Its Rate of Locomotion, chemotaxis is 0.238 ± 0.014.

**Q.** And the “Rate of Locomotion, random locomotion” value (Alveolar macrophages)?
**A.** Its value is 3.24 ± 0.53 um/h.
